Legend:
CID1 poly (U) polymerase [1] = experiment: biochemical; parameters: species or system Schizosaccharomyces pombe; settings: RET1 over CID1, calculated from IC50 values
Description: (§1) Poly (U) polymerase from Schizosaccharomyces pombe, was obtained from NEB (M0337S). […]
(§2) Duplicate reactions were set up with each containing, 0.2 units of Cid1 enzyme, NEB (M0337S) with UTP at final concentration of 18 µM, RNA 3 nM, and buffer 6 up to a final volume of 10 µl. The reaction was done at 37°C for 20 mins, then the enzyme heat inactivated at 65 °C for 10 mins.

CID1 poly (U) polymerase [2] = biological target: T1, CID1 poly (U) polymerase (Schizosaccharomyces pombe, UniProt O13833); experiment: biochemical
T1 construct: purchased NEB M0337S
Description: as §1, §2

RET1 [3] = biological target: T2, RET1 (Trypanosoma brucei brucei, UniProt Q8WQX5, A749G/DEL18-18/G858D/N24H/V111I/W59S); experiment: Luciferase coupled PPi assay, 384 well format, RET1; format: biochemical
T2 construct: Full-length RET1 protein (975aa) was expressed in E. coli as an N-terminal GST-tagged fusion protein; made in house; host or cells: E. coli BL21 (DE3)
Description: Reactions were made up in Corning® 384 Well Low Flange White Flat Bottom Polystyrene TC-Treated Micro plates (Product #3570). RET1 enzyme was added at 0.1 μl (0.2 mgml^−1), UTP (Thermo Scientific R0471 100 mM) and RNA substrate final concentrations were equal to their Km: 50 μM and 20 nM respectively.[18] The volume was made up to 10 μl with buffer 6 (Tris pH 7.5 10 mM, KCl 10 mM, DTT 1 mM, MgCl2 3.2 mM) and the reaction was incubated 20 mins at 25°C, then heat inactivated at 65°C for 10 mins. Test compounds were added in 0.5 μl of DMSO stock solution. The positive control included of 0.5 μl of DMSO. After a 10 min cooling period, 5 μl of each of detection and conversion reagents from PPiLight™ Inorganic Pyrophosphate Assay Kit (Lonza, LT07-610) were added. Luminescence was read with a Pherastar Plus micro plate reader. IC50 determinations were carried out in triplicate using the luciferase assay protocol in a dilution series of 1 mM to 99 nM.

RET1 [4] = biological target: T2, RET1; experiment: Gel based assay for RET1 uridylylation activity (Sybr Gold); format: biochemical; settings: for Inhibition of RET1 uridylation of RNA, gel verification: inhibitor 50 µM, Fig. 3; for Gel Assay (qualitative activity in gel based assay): qualitative class: inactive, moderate or strong inhibitor, inhibitor 50 µM per method
Description: Individual reactions were made up in 0.2 ml PCR tubes (Peqlab 820264-A). RET1 enzyme (see SI text) was added (0.05 μl, 0.2 mg ml^−1), UTP (Thermo Scientific R0471 100 mM) was added to a final concentration of 50 μM. RNA substrate (see SI text) was added to a final concentration of 200 nM. Inhibitors were added as required (0.5 μl in DMSO) to a final concentration of 50 μM. When no inhibitor was included 5 % (vol/vol) DMSO was added as control. The volume was made up to 10 μl in buffer D (Tris pH 7.5 10 mM, KCl 200 mM, DTT 1 mM, EDTA 0.5 mM MgCl2 3.2 mM) and the reaction was incubated for 20 mins at 27°C, then inactivated at 65°C for 10 mins. RNA loading dye (10 μl, NEB B363A) was added and tubes were heated (5 mins at 70°C), 10 μl was loaded onto 15 % TBE urea pre-cast gel (Invitrogen EC68852) and run in 1 x TBE buffer for 1.5 h at 130 V. Gels were incubated with Sybr Gold nucleic acid stain (Life Technologies S11494) for 20 mins, then imaged on an ultraviolet trans-illuminator (BioDoc-It imaging system, UVP). Experiments were carried out in duplicate for each inhibitor.

T. brucei = experiment: Treating T. brucei cultures with compounds, cell density counts; format: cell-based, Trypanosoma brucei; settings: blood and insect forms; concentrations close to RET1 IC50 values (70μM and 2μM); Fig. S4
Description: Wild type blood form strain of trypanosomes were cultured to densities of 5 × 10^5 cells ml^−1 at 37 °C in HMI-9 medium, 1 % pen/strep, 10 % FCS, Puromycin 0.1 ug ml^−1 , zeocin 1 µg ml^−1. Test compounds in DMSO were added at varying concentrations (DMSO final concentration 1 %). The trypanosomes where then split 1/10 dilution and sub-cultured every 24 h to the same cell density (5 × 10^5 cells ml^−1). At 24 hour intervals, cell density measurements were performed using a hem cytometer. Test concentrations were determined by an initial dose finding experiment and compounds were tested at 0.2, 0.5 and 1 times a fatal dose. This was in the region of the IC50 for both compounds.

PC12 cells = test system: PC12 cells; parameters: method as in PMID 9256496; settings: concentrations of 10 μM; cited from earlier work
[5] = RET1 IC50, PPi assay 384-well follow-up, UTP 50 µM, RNA 20 nM
[6] = RET1 Inhibition IC50, selectivity experiment, Table 2

For `O=C(Nc1ccc(S(=O)(=O)N2CCOCC2)cc1)c1cc(Cl)ccc1NS(=O)(=O)c1ccc(Cl)s1` [Compound 1, Ataciguat], the “RET1 Selectivity (fold)” value (CID1 poly (U) polymerase [1]) was 66 fold, the IC50 (CID1 poly (U) polymerase [2]) was 4800 µM and the IC50 (RET1 [3]; [5]) was 70 µM. The IC50 (RET1 [3]; [6]) was 73 µM, the “Inhibition of RET1 uridylation of RNA, gel verification” value (RET1 [4]) was “effectively inhibit” and the “Gel Assay (qualitative activity in gel based assay)” value (RET1 [4]) was “Strong”. For the same compound, the “Toxicity to trypanosomes in culture” value (T. brucei) was “toxic to both blood and insect forms”.

In the case of `O=C(c1cc(O)c(O)c(O)c1)c1ccc(O)c(O)c1O` [Compound 2, exifone], the “Toxicity to PC12 cells” value (PC12 cells) is given as “not toxic”, the “RET1 Selectivity (fold)” value (CID1 poly (U) polymerase [1]) is given as 43 fold and the IC50 (CID1 poly (U) polymerase [2]) is given as 88 µM. The IC50 (RET1 [3]; [5]) was 2 µM, the IC50 (RET1 [3]; [6]) was 2 µM and the “Inhibition of RET1 uridylation of RNA, gel verification” value (RET1 [4]) was “effectively inhibit”. The “Gel Assay (qualitative activity in gel based assay)” value (RET1 [4]) was “Strong” and the “Toxicity to trypanosomes in culture” value (T. brucei) was “toxic to both blood and insect forms”.

— paper PMC5449093, “Selective inhibitors of trypanosomal uridylyl transferase RET1 establish druggability of RNA post-transcriptional modifications” (RNA Biology, 2016)
